Test results: PubChem BioAssay AID330 (DTP/NCI, 2004)
“And” between values parts separate entries of the source, which are not always exact repeats. Identical values can stand only once. Inconclusive results and toxic doses are left out.

Tested on: P388 leukemia ip, CD2F1 mice, survival T/C
Assay: NCI In Vivo Anticancer Drug Screen. Data for tumor model P388 Leukemia (intraperitoneal) in CD2F1 (CDF1) mice
Conditions: endpoint: median survival time, higher = longer survival
In short: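 Mice carrying the transplanted tumor received test compound or vehicle. Survival was recorded in each group, and the value is the treated-group measurement divided by that of the vehicle-treated control group.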

[1] = dose: 6.25 mg/kg/injection, schedule: Q01DX009 (ip), vehicle: water
[2] = dose: 25.0 mg/kg/injection, schedule: Q01DX009 (ip), vehicle: water
[3] = dose: 50.0 mg/kg/injection, schedule: Q01DX009 (ip), vehicle: water
[4] = dose: 12.5 mg/kg/injection, schedule: Q01DX005 (ip), vehicle: saline
[5] = dose: 25.0 mg/kg/injection, schedule: Q01DX005 (ip), vehicle: saline
[6] = dose: 50.0 mg/kg/injection, schedule: Q01DX005 (ip), vehicle: saline
[7] = dose: 50.0 mg/kg/injection, schedule: Q01DX005 (ip), vehicle: Klucel (hydroxypropylcellulose) (HPC)
[8] = dose: 100.0 mg/kg/injection, schedule: Q01DX005 (ip), vehicle: Klucel (hydroxypropylcellulose) (HPC)
[9] = dose: 200.0 mg/kg/injection, schedule: Q01DX005 (ip), vehicle: Klucel (hydroxypropylcellulose) (HPC)
[10] = dose: 50.0 mg/kg/injection, schedule: Q01DX009 (ip), vehicle: Klucel (hydroxypropylcellulose) (HPC)
[11] = dose: 100.0 mg/kg/injection, schedule: Q01DX009 (ip), vehicle: Klucel (hydroxypropylcellulose) (HPC)
[12] = dose: 200.0 mg/kg/injection, schedule: Q01DX009 (ip), vehicle: Klucel (hydroxypropylcellulose) (HPC)
[13] = dose: 50.0 mg/kg/injection, schedule: Q01DX009 (ip), vehicle: saline
[14] = dose: 100.0 mg/kg/injection, schedule: Q01DX009 (ip), vehicle: saline
[15] = dose: 200.0 mg/kg/injection, schedule: Q01DX009 (ip), vehicle: saline

With `Cn1cnc([N+](=O)[O-])c1[Se]c1nc(N)nc2nc[nH]c12` the T/C (dose: 3.12 mg/kg/injection, schedule: Q01DX009 (ip), vehicle: dextrose) was 117 % of control, the T/C (dose: 3.12 mg/kg/injection, schedule: Q01DX009 (ip), vehicle: water) was 104 % of control and the T/C (dose: 6.25 mg/kg/injection, schedule: Q01DX009 (ip), vehicle: dextrose) was 112 % of control. The T/C [1] was 116 % of control, the T/C (dose: 25.0 mg/kg/injection, schedule: Q01DX009 (ip), vehicle: dextrose) was 161 % of control and the T/C [2] was 106 % of control. The T/C (dose: 50.0 mg/kg/injection, schedule: Q01DX009 (ip), vehicle: dextrose) was 123 % of control and the T/C [3] was 116 % of control.
`c1cc2nc(-c3ccc4cc(C5=NCCN5)[nH]c4c3)[nH]c2cc1C1=NCCN1` was tested, and the T/C [4] was 106 % of control, the T/C [5] was 106 % of control and the T/C [6] was 99 % of control.
`N#Cc1c(F)cccc1N(Cc1cccnc1)C(=S)Nc1ccc(Cl)c(Cl)c1` was tested, and the T/C [7] was 110 % of control, the T/C [8] was 110 % of control and the T/C [9] was 105 % of control.
`O=C(O)C(Cc1ccccc1)NP(=S)(c1ccccc1)c1ccccc1` (stereo unspecified) was tested, and the T/C [10] was 110 % of control, the T/C [11] was 97 % of control and the T/C [12] was 106 % of control.
In the case of `Cn1cccc1/C=N/N1CC(=O)N(c2cccc(C(F)(F)F)c2)CC1=O`, the T/C (dose: 6.25 mg/kg/injection, schedule: Q01DX005 (ip), vehicle: saline with Tween-80) is reported as 98 % of control and the T/C (dose: 12.5 mg/kg/injection, schedule: Q01DX005 (ip), vehicle: saline with Tween-80) is reported as 100 % of control.
In the case of `OC(Cc1cccnc1)(c1ccccc1)c1cccc2ccccc12` (stereo unspecified), the T/C (dose: 100.0 mg/kg/injection, schedule: Q04DX003 (ip), vehicle: saline with Tween-80) is reported as 90 % of control and the T/C (dose: 200.0 mg/kg/injection, schedule: Q04DX003 (ip), vehicle: saline with Tween-80) is reported as 86 % of control.
With `Oc1ccc[n+](CCCCCC[n+]2cccc(O)c2)c1` the T/C (dose: 12.5 mg/kg/injection, schedule: Q01DX009 (ip), vehicle: water) was 118 % of control, the T/C [2] was 105 % of control and the T/C [3] was 110 % of control. The T/C (dose: 100.0 mg/kg/injection, schedule: Q01DX009 (ip), vehicle: water) was 112 % of control, the T/C (dose: 200.0 mg/kg/injection, schedule: Q01DX009 (ip), vehicle: water) was 102 % of control and the T/C (dose: 400.0 mg/kg/injection, schedule: Q01DX009 (ip), vehicle: water) was 102 % of control.
For `COc1cccc2c1C(=O)c1c(O)c3c(c(O)c1C2=O)CC(O)(/C(C)=N/NC(=O)c1cc(C(F)(F)F)cc(C(F)(F)F)c1)CC3OC1CC(N)C(O)C(C)O1` (stereo unspecified), the T/C (dose: 0.78 mg/kg/injection, schedule: Q01DX009 (ip), vehicle: water) was 151 % of control, the T/C (dose: 1.56 mg/kg/injection, schedule: Q01DX009 (ip), vehicle: water) was 174 % of control and the T/C (dose: 3.13 mg/kg/injection, schedule: Q01DX009 (ip), vehicle: water) was 160 % of control and 185 % of control. For the same compound, the T/C [1] was 93 % of control and 95 % of control.
`COC(C(N)=O)(c1ccccc1)C(F)(F)F` (stereo unspecified) was tested, and the T/C (dose: 100.0 mg/kg/injection, schedule: Q01DX009 (ip), vehicle: saline with Tween-80) was 90 % of control, the T/C (dose: 200.0 mg/kg/injection, schedule: Q01DX009 (ip), vehicle: saline with Tween-80) was 100 % of control and the T/C (dose: 400.0 mg/kg/injection, schedule: Q01DX009 (ip), vehicle: saline with Tween-80) was 90 % of control.
For `COc1ccc(/C(=C/c2ccc([N+](=O)[O-])cc2)C(=O)O)cc1`, the T/C [7] was 105 % of control, the T/C [8] was 105 % of control and the T/C [9] was 105 % of control.
With `CCn1c(=O)c2n[nH]nc2n(C2CC2)c1=O` the T/C [13] was 92 % of control, the T/C [14] was 96 % of control and the T/C [15] was 105 % of control.
With `COc1ccc(S(=O)(=O)c2cnc(N)nc2N)cc1` the T/C (dose: 100.0 mg/kg/injection, schedule: Q01DX001 (ip), vehicle: saline) was 97 % of control, the T/C (dose: 200.0 mg/kg/injection, schedule: Q01DX001 (ip), vehicle: saline) was 93 % of control and the T/C (dose: 400.0 mg/kg/injection, schedule: Q01DX001 (ip), vehicle: saline) was 90 % of control.
In the case of `CCC(C)C(NC(=O)OC(C)(C)c1ccc(-c2ccccc2)cc1)C(=O)O` (stereo unspecified), the T/C (dose: 50.0 mg/kg/injection, schedule: Q01DX005 (ip), vehicle: saline with Tween-80) is reported as 99 % of control, the T/C (dose: 100.0 mg/kg/injection, schedule: Q01DX005 (ip), vehicle: saline with Tween-80) is reported as 102 % of control and the T/C (dose: 200.0 mg/kg/injection, schedule: Q01DX005 (ip), vehicle: saline with Tween-80) is reported as 95 % of control.
For `CNC(=O)c1ccccc1NC(=O)c1ccccc1N=[N+]=[N-]`, the T/C [7] was 100 % of control, the T/C [8] was 100 % of control and the T/C [9] was 98 % of control.
For `NC(Cc1ccc(OC2CCCC2)c(N(CCCl)CCCl)c1)C(=O)O` (stereo unspecified), the T/C (dose: 7.5 mg/kg/injection, schedule: Q04DX003 (ip), vehicle: saline) was 168 % of control, the T/C (dose: 15.0 mg/kg/injection, schedule: Q04DX003 (ip), vehicle: saline) was 168 % of control and the T/C (dose: 30.0 mg/kg/injection, schedule: Q04DX003 (ip), vehicle: saline) was 218 % of control.
For `CCc1nc(N)nc(N)c1-c1ccc(Cl)cc1.[O]=[Zn]`, the T/C (dose: 12.5 mg/kg/injection, schedule: Q04DX003 (ip), vehicle: Klucel (hydroxypropylcellulose) (HPC)) was 106 % of control, the T/C (dose: 25.0 mg/kg/injection, schedule: Q04DX003 (ip), vehicle: Klucel (hydroxypropylcellulose) (HPC)) was 106 % of control and the T/C (dose: 50.0 mg/kg/injection, schedule: Q04DX003 (ip), vehicle: Klucel (hydroxypropylcellulose) (HPC)) was 113 % of control. The T/C (dose: 100.0 mg/kg/injection, schedule: Q04DX003 (ip), vehicle: Klucel (hydroxypropylcellulose) (HPC)) was 117 % of control.
`CCC(CNc1cc(OC)cc2cccnc12)NC1CCCCC1` (stereo unspecified) was tested, and the T/C [4] was 102 % of control, the T/C [5] was 99 % of control and the T/C [6] was 100 % of control and 102 % of control.
With `CS1(=O)=NC(=N)c2ccccc21` (stereo unspecified) the T/C [13] was 102 % of control and the T/C [14] was 107 % of control.
`Cl` was tested, and the T/C (dose: 6.25 mg/kg/injection, schedule: Q01DX009 (ip), vehicle: saline with Tween-80) was 95 % of control, the T/C (dose: 0.01 % in 0.5 ml injection vol, schedule: Q01DX009 (ip), vehicle: water) was 100 % of control and the T/C (dose: 12.5 mg/kg/injection, schedule: Q01DX009 (ip), vehicle: saline with Tween-80) was 100 % of control. For the same compound, the T/C (dose: 0.02 % in 0.5 ml injection vol, schedule: Q01DX009 (ip), vehicle: water) was 101 % of control and 92 % of control, the T/C (dose: 25.0 mg/kg/injection, schedule: Q01DX009 (ip), vehicle: saline with Tween-80) was 100 % of control and the T/C (dose: 25.0 mg/kg/injection, schedule: Q01DX009 (ip), vehicle: saline) was 106 % of control. For the same compound, the T/C (dose: 0.04 % in 0.5 ml injection vol, schedule: Q01DX009 (ip), vehicle: water) was 102 % of control and 108 % of control, the T/C [13] was 104 % of control and the T/C (dose: 50.0 mg/kg/injection, schedule: Q#A X018 (ip), vehicle: saline) was 99 % of control. For the same compound, the T/C (dose: 0.08 % in 0.5 ml injection vol, schedule: Q01DX009 (ip), vehicle: water) was 100 % of control and 88 % of control, the T/C [14] was 101 % of control and the T/C (dose: 100.0 mg/kg/injection, schedule: Q#A X018 (ip), vehicle: saline) was 105 % of control. The T/C (dose: 0.16 % in 0.5 ml injection vol, schedule: Q01DX009 (ip), vehicle: water) was 88 % of control, the T/C [15] was 110 % of control and 97 % of control and the T/C (dose: 200.0 mg/kg/injection, schedule: Q#A X018 (ip), vehicle: saline) was 97 % of control. The T/C (dose: 0.31 % in 0.5 ml injection vol, schedule: Q01DX009 (ip), vehicle: water) was 88 % of control, the T/C (dose: 400.0 mg/kg/injection, schedule: Q01DX009 (ip), vehicle: saline) was 95 % of control and the T/C (dose: 400.0 mg/kg/injection, schedule: Q#A X018 (ip), vehicle: saline) was 87 % of control. For the same compound, the T/C (dose: 800.0 mg/kg/injection, schedule: Q01DX009 (ip), vehicle: saline) was 103 % of control.
For `N#CC1=C(N)Oc2c(c(-c3ccccc3)nn2-c2ccccc2)C1c1ccccc1` (stereo unspecified), the T/C [10] was 100 % of control, the T/C [11] was 105 % of control and the T/C [12] was 100 % of control.
With `Cc1cc(Cl)cc2[s+]snc12` the T/C (dose: 60.0 mg/kg/injection, schedule: Q01DX005 (ip), vehicle: saline with Tween-80) was 100 % of control, the T/C (dose: 120.0 mg/kg/injection, schedule: Q01DX005 (ip), vehicle: saline with Tween-80) was 101 % of control and the T/C (dose: 240.0 mg/kg/injection, schedule: Q01DX005 (ip), vehicle: saline with Tween-80) was 92 % of control.
